According to patent US20090191636A1, “Method of Producing Transgenic Graminaceous Cells and Plants” (priority 2006, published 2009):

What was measured:
[1] = system: wheat embryos derived from mature dried grain of the cultivar Bobwhite; assay: Effect of D-amino acids on regeneration of wheat from embryos of mature dried grain (Bobwhite); format: cell-based, Triticum aestivum; conditions: for proportion (%) of explants regenerating after 3 weeks, Average / proportion (%) of explants regenerating after 3 weeks, Experiment number 1 / proportion (%) of explants regenerating after 3 weeks, Experiment number 2 / proportion (%) of explants regenerating after 3 weeks, Experiment number 3: n = 20
Description: (§1) A range of concentrations of the D-amino acids D-serine and D-alanine were tested for effects on wheat regeneration and germination from embryos derived from mature dried grain of the cultivar Bobwhite.

[2] = system: wheat mature dried grain of the cultivar Bobwhite; assay: Effect of D-amino acids on germination of wheat mature dried grain (Bobwhite); format: in vivo, Triticum aestivum; conditions: n = 15
Description: as §1

[3] = system: wheat embryos derived from mature dried grain of the cultivar Ventura; assay: Effect of D-amino acids on regeneration of wheat from embryos of mature dried grain (Ventura); format: cell-based; conditions: n = 20
[4] = system: wheat mature dried grain of the cultivar Ventura; assay: Effect of D-amino acids on germination of wheat mature dried grain (Ventura); format: in vivo; conditions: n = 15
Description: [Worded in the source for another variant; this variant is reported under the same test.] as §1

N[C@H](CO)C(=O)O [D-serine]
proportion (%) of explants regenerating after 3 weeks, Average ([1]; 0.5 mM): 28% | proportion (%) of explants regenerating after 3 weeks, Experiment number 1 ([1]; 0.5 mM): 45% | proportion (%) of explants regenerating after 3 weeks, Experiment number 2 ([1]; 0.5 mM): 33% | proportion (%) of explants regenerating after 3 weeks, Experiment number 3 ([1]; 0.5 mM): 5% | proportion (%) of explants regenerating after 3 weeks, Average ([1]; 1 mM): 23% | proportion (%) of explants regenerating after 3 weeks, Experiment number 1 ([1]; 1 mM): 30% | proportion (%) of explants regenerating after 3 weeks, Experiment number 2 ([1]; 1 mM): 33% | proportion (%) of explants regenerating after 3 weeks, Experiment number 3 ([1]; 1 mM): 5% | proportion (%) of explants regenerating after 3 weeks, Average ([1]; 5 mM): 8% | proportion (%) of explants regenerating after 3 weeks, Experiment number 1 ([1]; 5 mM): 10% | proportion (%) of explants regenerating after 3 weeks, Experiment number 2 ([1]; 5 mM): 10% | proportion (%) of explants regenerating after 3 weeks, Experiment number 3 ([1]; 5 mM): 5% | proportion (%) of explants regenerating after 3 weeks, Average ([1]; 7.5 mM): 3% | proportion (%) of explants regenerating after 3 weeks, Experiment number 1 ([1]; 7.5 mM): 0% | proportion (%) of explants regenerating after 3 weeks, Experiment number 2 ([1]; 7.5 mM): 5% | proportion (%) of explants regenerating after 3 weeks, Experiment number 3 ([1]; 7.5 mM): 5% | proportion (%) of explants regenerating after 3 weeks, Average ([1]; 10 mM): 0% | proportion (%) of explants regenerating after 3 weeks, Experiment number 1 ([1]; 10 mM): 0% | proportion (%) of explants regenerating after 3 weeks, Experiment number 2 ([1]; 10 mM): 0% | proportion (%) of explants regenerating after 3 weeks, Experiment number 3 ([1]; 10 mM): 0% | proportion (%) of explants regenerating after 3 weeks, Average ([1]; 30 mM): 0% | proportion (%) of explants regenerating after 3 weeks, Experiment number 1 ([1]; 30 mM): 0% | proportion (%) of explants regenerating after 3 weeks, Experiment number 2 ([1]; 30 mM): 0% | proportion (%) of explants regenerating after 3 weeks, Experiment number 3 ([1]; 30 mM): 0% | levels that reduced the regeneration and germination of wheat plants ([1]; regeneration and germination (Tables 4 and 5)): greater than 7.5 mM | proportion (%) of explants germinated after 1 week, Average ([2]; 0.5 mM): 62% | proportion (%) of explants germinated after 1 week, Experiment Number 1 ([2]; 0.5 mM): 35% | proportion (%) of explants germinated after 1 week, Experiment Number 2 ([2]; 0.5 mM): 70% | proportion (%) of explants germinated after 1 week, Experiment Number 3 ([2]; 0.5 mM): 80% | proportion (%) of explants germinated after 1 week, Average ([2]; 1 mM): 57% | proportion (%) of explants germinated after 1 week, Experiment Number 1 ([2]; 1 mM): 30% | proportion (%) of explants germinated after 1 week, Experiment Number 2 ([2]; 1 mM): 80% | proportion (%) of explants germinated after 1 week, Experiment Number 3 ([2]; 1 mM): 60% | proportion (%) of explants germinated after 1 week, Average ([2]; 5 mM): 38% | proportion (%) of explants germinated after 1 week, Experiment Number 1 ([2]; 5 mM): 20% | proportion (%) of explants germinated after 1 week, Experiment Number 2 ([2]; 5 mM): 70% | proportion (%) of explants germinated after 1 week, Experiment Number 3 ([2]; 5 mM): 25% | proportion (%) of explants germinated after 1 week, Average ([2]; 7.5 mM): 32% | proportion (%) of explants germinated after 1 week, Experiment Number 1 ([2]; 7.5 mM): 10% | proportion (%) of explants germinated after 1 week, Experiment Number 2 ([2]; 7.5 mM): 60% | proportion (%) of explants germinated after 1 week, Experiment Number 3 ([2]; 7.5 mM): 25% | proportion (%) of explants germinated after 1 week, Average ([2]; 10 mM): 18% | proportion (%) of explants germinated after 1 week, Experiment Number 1 ([2]; 10 mM): 0% | proportion (%) of explants germinated after 1 week, Experiment Number 2 ([2]; 10 mM): 35% | proportion (%) of explants germinated after 1 week, Experiment Number 3 ([2]; 10 mM): 20% | proportion (%) of explants germinated after 1 week, Average ([2]; 30 mM): 0% | proportion (%) of explants germinated after 1 week, Experiment Number 1 ([2]; 30 mM): 0% | proportion (%) of explants germinated after 1 week, Experiment Number 2 ([2]; 30 mM): 0% | proportion (%) of explants germinated after 1 week, Experiment Number 3 ([2]; 30 mM): 0% | proportion (%) of explants regenerating after 3 weeks, Average ([3]; 0.5 mM): 10% | proportion (%) of explants regenerating after 3 weeks, Experiment number 1 ([3]; 0.5 mM): 10% | proportion (%) of explants regenerating after 3 weeks, Experiment number 2 ([3]; 0.5 mM): 15% | proportion (%) of explants regenerating after 3 weeks, Experiment number 3 ([3]; 0.5 mM): 5% | proportion (%) of explants regenerating after 3 weeks, Average ([3]; 1 mM): 7% | proportion (%) of explants regenerating after 3 weeks, Experiment number 1 ([3]; 1 mM): 10% | proportion (%) of explants regenerating after 3 weeks, Experiment number 2 ([3]; 1 mM): 5% | proportion (%) of explants regenerating after 3 weeks, Experiment number 3 ([3]; 1 mM): 5% | proportion (%) of explants regenerating after 3 weeks, Average ([3]; 5 mM): 5% | proportion (%) of explants regenerating after 3 weeks, Experiment number 1 ([3]; 5 mM): 5% | proportion (%) of explants regenerating after 3 weeks, Experiment number 2 ([3]; 5 mM): 5% | proportion (%) of explants regenerating after 3 weeks, Average ([3]; 7.5 mM): 0% | proportion (%) of explants regenerating after 3 weeks, Experiment number 1 ([3]; 7.5 mM): 0% | proportion (%) of explants regenerating after 3 weeks, Experiment number 2 ([3]; 7.5 mM): 0% | proportion (%) of explants regenerating after 3 weeks, Experiment number 3 ([3]; 7.5 mM): 0% | proportion (%) of explants regenerating after 3 weeks, Average ([3]; 10 mM): 0% | proportion (%) of explants regenerating after 3 weeks, Experiment number 1 ([3]; 10 mM): 0% | proportion (%) of explants regenerating after 3 weeks, Experiment number 2 ([3]; 10 mM): 0% | proportion (%) of explants regenerating after 3 weeks, Experiment number 3 ([3]; 10 mM): 0% | proportion (%) of explants regenerating after 3 weeks, Average ([3]; 30 mM): 0% | proportion (%) of explants regenerating after 3 weeks, Experiment number 1 ([3]; 30 mM): 0% | proportion (%) of explants regenerating after 3 weeks, Experiment number 2 ([3]; 30 mM): 0% | proportion (%) of explants regenerating after 3 weeks, Experiment number 3 ([3]; 30 mM): 0% | germination: proportion (%) of explants regenerating after 1 week, Average ([4]; 0.5 mM): 70% | germination: proportion (%) of explants regenerating after 1 week, Experiment number 1 ([4]; 0.5 mM): 65% | germination: proportion (%) of explants regenerating after 1 week, Experiment number 2 ([4]; 0.5 mM): 60% | germination: proportion (%) of explants regenerating after 1 week, Experiment number 3 ([4]; 0.5 mM): 85% | germination: proportion (%) of explants regenerating after 1 week, Average ([4]; 1 mM): 68% | germination: proportion (%) of explants regenerating after 1 week, Experiment number 1 ([4]; 1 mM): 70% | germination: proportion (%) of explants regenerating after 1 week, Experiment number 2 ([4]; 1 mM): 70% | germination: proportion (%) of explants regenerating after 1 week, Experiment number 3 ([4]; 1 mM): 65% | germination: proportion (%) of explants regenerating after 1 week, Average ([4]; 5 mM): 53% | germination: proportion (%) of explants regenerating after 1 week, Experiment number 1 ([4]; 5 mM): 60% | germination: proportion (%) of explants regenerating after 1 week, Experiment number 2 ([4]; 5 mM): 45% | germination: proportion (%) of explants regenerating after 1 week, Average ([4]; 7.5 mM): 23% | germination: proportion (%) of explants regenerating after 1 week, Experiment number 1 ([4]; 7.5 mM): 15% | germination: proportion (%) of explants regenerating after 1 week, Experiment number 2 ([4]; 7.5 mM): 20% | germination: proportion (%) of explants regenerating after 1 week, Experiment number 3 ([4]; 7.5 mM): 35% | germination: proportion (%) of explants regenerating after 1 week, Average ([4]; 10 mM): 43% | germination: proportion (%) of explants regenerating after 1 week, Experiment number 2 ([4]; 10 mM): 30% | germination: proportion (%) of explants regenerating after 1 week, Experiment number 3 ([4]; 10 mM): 55% | germination: proportion (%) of explants regenerating after 1 week, Average ([4]; 30 mM): 0% | germination: proportion (%) of explants regenerating after 1 week, Experiment number 1 ([4]; 30 mM): 0% | germination: proportion (%) of explants regenerating after 1 week, Experiment number 2 ([4]; 30 mM): 0% | germination: proportion (%) of explants regenerating after 1 week, Experiment number 3 ([4]; 30 mM): 0%
